The experiment concerns the target T1, CSNK1D (CK1 delta) (Homo sapiens, UniProt P48730).
T1 construct: purchased Thermo Fisher Scientific (Life Technologies) SelectScreen
Nature of the experiment: SelectScreen Z'LYTE. It counts as biochemical. The essentials:
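Percent values come from Thermo SelectScreen profiling of NU5455, combining activity and binding assays. CSF1R was run in Z'LYTE format at Km app ATP, and CAMK1 in Adapta format with ATP listed at 10.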

Each structure is given as a SMILES string.

The term inhibition denotes how much of the control response was suppressed. A higher inhibition goes with strong suppression.

T1 sequence (P48730 whole entry): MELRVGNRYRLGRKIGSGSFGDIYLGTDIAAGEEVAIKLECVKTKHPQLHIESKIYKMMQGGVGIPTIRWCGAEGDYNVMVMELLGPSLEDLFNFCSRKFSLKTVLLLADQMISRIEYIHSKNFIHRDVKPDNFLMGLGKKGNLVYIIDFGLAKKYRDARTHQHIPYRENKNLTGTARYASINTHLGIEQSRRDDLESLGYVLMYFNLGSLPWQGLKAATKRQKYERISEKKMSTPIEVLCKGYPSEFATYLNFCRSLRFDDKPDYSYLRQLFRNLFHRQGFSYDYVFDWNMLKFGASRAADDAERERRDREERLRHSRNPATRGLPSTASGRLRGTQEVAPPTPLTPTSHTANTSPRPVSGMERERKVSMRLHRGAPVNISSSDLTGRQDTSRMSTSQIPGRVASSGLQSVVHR

On to `CN(C(=O)CN1CCOCC1)c1ccc2sc3c(-c4cccc5c(=O)cc(N6CC7CCC(C6)O7)oc45)cccc3c2c1` [NU5455], for which the inhibition at 1 µM is 2.6%.

Source of the values: PMC6934184, “Selective DNA-PKcs inhibition extends the therapeutic index of localized radiotherapy and chemotherapy” (The Journal of Clinical Investigation, 2019).
